details: [M+H]+; instrument: TW; calibrated with polyalanine and drug standards

| Compound | collision cross section (N2) [Å²] |
| --- | --- |
| CC(C)=CCCC1(C)C=Cc2c(O)c3c(c(CC=C(C)C)c2O1)OC12C(CC4CC1C(C)(C)OC2(C/C=C(/C)C(=O)O)C4O)C3=O (centres undefined) [TETRAHYDROGAMBOGIC ACID] | 246.4 |
| COC1=CC(=O)C=C(OC)C1=O [2,6-DIMETHOXYQUINONE] | 129.5 |
| CC(=O)Oc1c(C)cccc1C(=O)O [CRESOPIRINE] | 129.1 |
| CCOC(=O)c1ccc(N)cc1 [BENZOCAINE] | 145.9 |
| C[C@@H]1O[C@@H](O[C@H]2CC[C@]3(C=O)[C@H]4CC[C@]5(C)[C@@H](C6=CC(=O)OC6)CC[C@]5(O)[C@@H]4CC[C@]3(O)C2)[C@H](O)[C@H](O)[C@H]1O [CONVALLATOXIN] | 238.1 |
| CC(=O)Oc1ccc(C(c2ccc(OC(C)=O)cc2)c2ccccn2)cc1 [BISACODYL] | 193.3 |
| CN1[C@H]2CC(=O)C[C@@H]1C(O)C2 (some centres undefined) [6-HYDROXYTROPINONE] | 131.6 |
| CC(C)(C)NCC(O)c1ccc(O)c(CO)c1 (centres undefined) [ALBUTEROL] | 158.4 |
| C=C(C)c1cc2cc(C(C)=O)c(O)cc2o1 [EUPARIN] | 143.2 |
| COC(=O)[C@@H]1OC(=O)C2OC23[C@@]1(C)CCC1[C@]2(C)C(C[C@@H](O)[C@]13C)C(C)(C)[C@H](OC(C)=O)C[C@@H]2OC(C)=O (some centres undefined) [DESACETYL (7)KHIVORINIC ACID, METHYL ESTER] | 216.9 |
| CC(C)N=c1cc2n(-c3ccc(Cl)cc3)c3ccccc3nc-2cc1Nc1ccc(Cl)cc1 [CLOFAZIMINE] | 216.8 |
| CC(C)CC1C(=O)N2CCCC2C2(O)OC(NC(=O)C3C=C4c5cccc6[nH]cc(c56)CC4N(C)C3)(C(C)C)C(=O)N12 (stereo not drawn) [alpha-ERGOCRYPTINE] | 236.1 |
| CC(CC(C(N)=O)(c1ccccc1)c1ccccc1)N(C)C (centres undefined) [AMINOPENTAMIDE] | 169.6 |
| COc1cc2c(cc1O)C[C@H]1c3c(cc(O)c(OC)c3-2)CCN1C [BOLDINE] | 179.2 |
| O=C(CCCN1CCC(O)(c2ccc(Br)cc2)CC1)c1ccc(F)cc1 [BROMPERIDOL] | 194.9 |
| O=C(O)c1cc(=O)c2ccccc2o1 [CHROMOCARB] | 134 |
| C/C=C(/C)C(=O)O[C@H]1CC[C@@]2(C)[C@@H]3CC[C@H]4[C@]5(O)C[C@H](O)[C@@]6(O)[C@@H](CN7C[C@@H](C)CC[C@H]7[C@@]6(C)O)[C@]5(O)C[C@@]42O[C@]13O [CEVADINE] | 237.2 |
| CCCCC[C@H](CC(=O)NO)C(=O)N[C@H](C(=O)N1CCC[C@H]1CO)C(C)C [ACTINONIN] | 194.1 |
| CC(C)(O/N=C(\C(=O)N[C@@H]1C(=O)N2C(C(=O)[O-])=C(C[n+]3ccccc3)CS[C@H]12)c1csc(N)n1)C(=O)O [CEFTAZIDIME] | 218.2 |
| CC1(C)C2CC(=O)[C@]3(C)C(CC[C@@]4(C)[C@H](c5ccoc5)OC(=O)[C@H]5O[C@]543)[C@@]2(C)C(=O)C[C@H]1O (some centres undefined) [1,7-DIDEACETOXY-1,7-DIOXO-3-DEACETYLKHIVORIN] | 199.7 |
| Nc1nc(N)c2nc(CNc3ccc(C(=O)N[C@@H](CCC(=O)O)C(=O)O)cc3)cnc2n1 [AMINOPTERIN] | 204.4 |
| C[C@]12CC[C@H]3[C@@H](CCC4=CC(=O)CC[C@@]43C)[C@@H]1CC[C@H]2O [EPITESTOSTERONE] | 170.7 |
| C[C@@H]1C[C@H]2[C@@H]3CCC4=CC(=O)C=C[C@]4(C)[C@@]3(F)[C@@H](O)C[C@]2(C)[C@@]1(O)C(=O)CO [DEXAMETHASONE] | 187.9 |

Now from value to compound:

| collision cross section (N2) [Å²] | Compound |
| --- | --- |
| 162.5 | CCCN(CCC)CCc1cccc2c1CC(=O)N2 [ROPINIROLE] |
| 152.7 | CCOc1ccc2nc(S(N)(=O)=O)sc2c1 [ETHOXZOLAMIDE] |
| 186.4 | COc1ccc(-c2cc(=O)c3c(OC)c(OC)c(OC)cc3o2)cc1OC [SINENSETIN] |
| 176.1 | COc1cc(/C=C/C(=O)N2CCC=CC2=O)cc(OC)c1OC [PIPLARTINE] |
| 155.9 | Cc1ncc(C[n+]2csc(CCO)c2C)c(N)n1 [THIAMINE] |
| 163.4 | O=c1cc(-c2cc(O)c(O)c(O)c2)oc2cc(O)cc(O)c12 [HIERACIN] |
| 162.1 | COc1ccc(-c2coc3cc(O)ccc3c2=O)c(O)c1O [KOPARIN] |
| 123.7 | Cc1cc(=O)[nH]c(=S)[nH]1 [METHYLTHIOURACIL] |
| 125.6 | NNC(=O)c1ccncc1 [ISONIAZID] |
| 183.7 | C[C@]12C=CC(=O)C=C1CC[C@@H]1[C@@H]2[C@@H](O)C[C@@]2(C)[C@H]1CC[C@]2(O)C(=O)CO [PREDNISOLONE] |
| 131.1 | Nc1nc(=O)c2[nH]c(=O)cnc2[nH]1 [XANTHOPTERIN] |
| 176.2 | C=C[C@@](C)(O)CCC1C(=C)C[C@H](O)C2C(C)(C)CCCC12C (some centres undefined) [LARIXOL] |
| 245.7 | CC(C)=CCCC1(C)C=Cc2c(O)c3c(c(CC=C(C)C)c2O1)OC12C(=CCCC1C(C)(C)O[C@@]2(C/C=C(\C)C(=O)O)C(=O)O)C3=O (some centres undefined) [GARCINOLIC ACID] |
| 174.1 | COC(=O)Nc1nc2ccc(S(=O)c3ccccc3)cc2[nH]1 (centres undefined) [OXFENDAZOLE] |
| 186.6 | N#Cc1ccc2c(c1)N(CCCN1CCC(O)CC1)c1ccccc1S2 [PERICIAZINE] |
| 187.3 | O=C(OCC(O)CO)c1ccccc1Nc1ccnc2cc(Cl)ccc12 (centres undefined) [GLAFENINE] |
| 205.7 | CC(=O)O[C@@H]1C[C@H]2C(C)(C)C(=O)C=C[C@]2(C)[C@H]2CC[C@@]3(C)[C@H](c4ccoc4)OC(=O)[C@H]4O[C@]43[C@@]21C [GEDUNIN] |

| collision cross section (N2) [Å²] | Compound |
| --- | --- |
| 278.9 | CC(=O)OC1C(=O)C2(C)C(O)CC3OCC3(OC(C)=O)C2C(OC(=O)c2ccccc2)C2(O)CC(OC(=O)C(O)C(NC(=O)c3ccccc3)c3ccccc3)C(C)=C1C2(C)C (centres undefined) [PACLITAXEL] |
| 199.7 | CC1(C)O[C@@H]2C[C@H]3[C@@H]4C[C@H](F)C5=CC(=O)C=C[C@]5(C)[C@@]4(F)[C@@H](O)C[C@]3(C)[C@]2(C(=O)CO)O1 [FLUOCINOLONE ACETONIDE] |
| 186.3 | C#C[C@]1(OC(C)=O)CC[C@H]2[C@@H]3CCC4=CC(=O)CC[C@@H]4[C@H]3CC[C@@]21C [NORETHINDRONE ACETATE] |
| 130.4 | Cc1ncc([N+](=O)[O-])n1CCO [METRONIDAZOLE] |
| 159.4 | CC(=O)Oc1ccccc1C(=O)Oc1ccccc1C(=O)O [DIPLOSALSALATE] |
| 145.9 | O=C1c2ccccc2C(=O)C1c1ccccc1 [PHENINDIONE] |
| 182.4 | O=C(O)CCC(=O)Nc1ccc(S(=O)(=O)Nc2nccs2)cc1 [SUCCINYLSULFATHIAZOLE] |
| 167 | CN/C(=C\[N+](=O)[O-])NCCSCc1ccc(CN(C)C)o1 [RANITIDINE] |
| 134.7 | Nc1ccc(O)c(C(=O)O)c1 [MESALAMINE] |
| 166.2 | COc1ncnc(NS(=O)(=O)c2ccc(N)cc2)c1OC [SULFADOXINE] |
| 159 | COc1cnc(NS(=O)(=O)c2ccc(N)cc2)nc1 [SULFAMETER] |
| 220 | CC1=C(C/C=C(\C)CCC[C@H](C)CCC[C@H](C)CCCC(C)C)C(=O)c2ccccc2C1=O [PHYTONADIONE] |
| 146.1 | CCCCS(=N)(=O)CC[C@H](N)C(=O)O (stereo partly drawn) [L-BUTHIONINE SULFOXIMINE] |
| 203.9 | COC(=O)C[C@H]1C(C)(C)C(=O)[C@@H]2CC3=C4CC(=O)O[C@@H](c5ccoc5)[C@]4(C)CC[C@@H]3[C@@]1(C)C2=O [MEXICANOLIDE] |
| 181.9 | CCOC(=O)C1=C(C)NC(C)=C(C(=O)OC)C1c1cccc([N+](=O)[O-])c1 (centres undefined) [NITRENDIPINE] |
| 293.2 | CO[C@H]1C[C@H](O[C@@H]2/C(C)=C/C[C@@H]3C[C@@H](C[C@]4(CC[C@H](C)[C@@H](C5CCCCC5)O4)O3)OC(=O)[C@@H]3C=C(C)/C(=N/O)[C@H]4OC/C(=C\C=C\[C@@H]2C)[C@]43O)O[C@@H](C)[C@@H]1O [SELAMECTIN] |

same assay, conditions: [M+Na]+; instrument: TW; calibrated with polyalanine and drug standards

| Compound | collision cross section (N2) [Å²] |
| --- | --- |
| CCCCCCCCCCCCCCCCC(C(=O)O)C(O)(CC(=O)O)C(=O)O (centres undefined) [AGARIC ACID] | 213.1 |
| C[C@H](CCC(=O)O)[C@H]1CC[C@H]2[C@@H]3C(=O)C[C@@H]4CC(=O)CC[C@]4(C)[C@H]3CC(=O)[C@]12C [DEHYDROCHOLIC ACID] | 192.1 |
| CCCCOC(=O)c1ccccc1C(=O)OCCCC [DIBUTYL PHTHALATE] | 180.7 |
| C/C=C(\C)C(=O)O[C@H]1C[C@@H](OC(C)=O)[C@@]2(C(=O)OC)CO[C@H]3[C@@H](O)[C@@](C)([C@]45O[C@@]4(C)[C@H]4C[C@@H]5O[C@@H]5OC=C[C@@]54O)[C@H]4[C@]1(CO[C@]4(O)C(=O)OC)[C@@H]32 [AZADIRACHTIN] | 241.4 |
| CC(C)(C#N)O[C@@H]1O[C@H](CO)[C@@H](O)[C@H](O)[C@H]1O [LINAMARIN] | 157.3 |

Now from value to compound:

| collision cross section (N2) [Å²] | Compound |
| --- | --- |
| 170.1 | CC1(C)O[C@@H]2[C@@H](CO[C@@]3(COS(N)(=O)=O)OC(C)(C)O[C@@H]23)O1 [TOPIRAMATE] |
| 166.6 | CC(=O)N[C@H]1[C@H]([C@H](O)[C@H](O)CO)O[C@](O)(C(=O)O)C[C@@H]1O [N-ACETYLNEURAMIC ACID] |
| 311.6 | CO[C@H]1C[C@@H]2CC[C@@H](C)[C@@](O)(O2)C(=O)C(=O)N2CCCC[C@H]2C(=O)O[C@H]([C@H](C)C[C@@H]2CC[C@@H](O)[C@H](OC)C2)CC(=O)[C@H](C)/C=C(\C)[C@@H](O)[C@@H](OC)C(=O)[C@H](C)C[C@H](C)/C=C/C=C/C=C/1C [SIROLIMUS] |
